Reference: patent US11306063B2, “Heterocyclic naphthoquinones derivatives for use in the treatment of cancers including Cushing disease” (Commissariat a l'Energie Atomique et aux Energies …, priority 2016, dated 2022)
Like-named read-outs stand apart in the source and are kept apart here.

Assays:
[1] = target: T1, USP2^CD (purified catalytic domain of USP2) (Homo sapiens, UniProt O75604); assay: Inhibition of purified USP2^CD enzymatic activity (Ub-AMC or Ub-Rho substrate); assay type: biochemical; details: for inhibition at 0.01 µM: 0.01 μM compound; for inhibition at 0.05 µM: 0.05 μM compound; for inhibition at 0.1 µM: 0.1 μM compound; for inhibition at 0.5 µM: 0.5 μM compound; for inhibition at 1 µM: 1 μM compound; for inhibition at 5 µM: 5 μM compound; for inhibition at 10 µM: 10 μM compound; for inhibition at 25 µM: 25 μM compound; for inhibition at 50 µM: 50 μM compound; for IC50: read-out: IC50 USP2 CD
T1 construct: The purified catalytic domain of USP2 (USP2^CD, in-house purified); His; made in house; host or cells: E. coli BL21 Gold
T1 sequence (O75604 267-599 limits assumed): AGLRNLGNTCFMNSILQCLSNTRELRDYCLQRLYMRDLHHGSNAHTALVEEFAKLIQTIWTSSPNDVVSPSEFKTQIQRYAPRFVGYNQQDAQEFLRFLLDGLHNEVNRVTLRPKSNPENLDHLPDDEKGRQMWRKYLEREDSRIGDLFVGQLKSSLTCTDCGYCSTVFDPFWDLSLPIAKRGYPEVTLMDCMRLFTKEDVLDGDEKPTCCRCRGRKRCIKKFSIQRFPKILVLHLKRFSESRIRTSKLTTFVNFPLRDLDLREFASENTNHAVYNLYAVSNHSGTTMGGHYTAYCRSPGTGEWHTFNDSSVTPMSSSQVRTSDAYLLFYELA
Description: (§1) USP2CD or USP8CD were expressed in E. coli BL21 Gold. Cells were grown in LB Miller to mid-log phase and induced by addition of 0.5 mM IPTG for USP2CD for 5 h at 20° C., while 1 mM IPTG was added for USP8CD for 3 h at 37° C. Then, cells were harvested and frozen at −80° C.
For His-tagged USP2CD, cells were resuspended in buffer C (10 mM TRIS pH 8.0, 100 mM NaCl, 10 mM Imidazole) and lysed using a sonicator. The lysate was clarified by centrifugation and applied to Ni Sepharose6 Fast Flow resin (GE Healthcare). The resin was sequentially washed with buffer C, then with buffer C containing 50 mM Imidazole. Protein sample was eluted from the resin using buffer C containing 250 mM Imidazole. The eluted protein was buffer exchanged by gel-filtration on a Superdex 200 10/300 GL column (GE Healthcare) equilibrated in Buffer D (15 mM Bis-TRIS pH 6.0, 100 mM NaCl, 1 mM dithiothreitol (DTT)).
(§2) Enzymatic assay was performed in a HEPES buffer (50 mM pH7.6 1 mM DTT, 2% glycerol, 0.5 mM EDTA) or in a Tris buffer (40 mM pH7.4 1 mM DTT, 5% glycerol, 0.05 mg/ml BSA) respectively, following manufacturer's instructions. Compounds were added to the reaction mixture just prior to the substrate. The enzymatic reaction kinetics was monitored through the apparition of fluorescence due to the hydrolysis of the peptidyl Ub-AMC or Ub-Rho bound over 20 or 30 minutes.
(§3) Medium value out of duplicates is reported.

[2] = target: T2, USP8^CD (purified catalytic domain of USP8) (Homo sapiens, UniProt P40818); assay: Inhibition of purified USP8^CD enzymatic activity (Ub-AMC or Ub-Rho substrate); assay type: biochemical; details: for inhibition at 0.01 µM: 0.01 μM compound; for inhibition at 0.05 µM: 0.05 μM compound; for inhibition at 0.1 µM: 0.1 μM compound; for inhibition at 0.5 µM: 0.5 μM compound; for inhibition at 1 µM: 1 μM compound; for inhibition at 5 µM: 5 μM compound; for inhibition at 10 µM: 10 μM compound; for inhibition at 25 µM: 25 μM compound; for inhibition at 50 µM: 50 μM compound; for IC50: read-out: IC50 USP8 CD
T2 construct: the purified catalytic domain of USP8 (USP8^CD, in-house purified); made in house; host or cells: E. coli BL21 Gold
T2 sequence (P40818 777-1109 limits assumed): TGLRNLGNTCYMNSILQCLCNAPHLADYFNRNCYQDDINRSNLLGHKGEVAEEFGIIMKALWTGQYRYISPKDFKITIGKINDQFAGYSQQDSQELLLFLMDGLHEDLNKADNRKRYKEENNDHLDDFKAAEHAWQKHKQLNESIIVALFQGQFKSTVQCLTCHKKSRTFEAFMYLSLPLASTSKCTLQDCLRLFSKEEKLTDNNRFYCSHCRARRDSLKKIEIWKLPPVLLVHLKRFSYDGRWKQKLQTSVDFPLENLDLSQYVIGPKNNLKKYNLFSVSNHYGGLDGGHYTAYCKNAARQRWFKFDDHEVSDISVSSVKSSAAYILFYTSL
Description: as §1
For His-tagged USP8CD, cells were resuspended in buffer A (50 mM TRIS pH 8.0, 500 mM NaCl, 2 mM Imidazole) and lysed using a sonicator. The lysate was clarified by centrifugation and applied to Ni Sepharose6 Fast Flow resin (GE Healthcare). The resin was sequentially washed first with buffer A containing 10 mM Imidazole then with buffer A containing 20 mM Imidazole, and finally with buffer A containing 50 mM Imidazole. Protein sample was eluted from the resin using buffer A containing 300 mM Imidazole. The eluted protein was buffer exchanged by gel-filtration on a Superdex 200 10/300 GL column (GE Healthcare) equilibrated in Buffer B (20 mM HEPES pH 7.5, 300 mM NaCl, 2 mM dithiothreitol (DTT)).
as §2, §3

[3] = Ub-AMC substrate at 1 μM, Table 2b
[4] = Ub-Rhodamine substrate at 0.1 μM, Table 2c

Row | SMILES | inhibition at 0.01 µM ([1]; Table 1c) | inhibition at 0.05 µM ([1]; Table 1c) | inhibition at 0.1 µM ([1]; Table 1c) | inhibition at 0.5 µM ([1]; Table 1c) | inhibition at 1 µM ([1]; Table 1b) | inhibition at 1 µM ([1]; Table 1c) | inhibition at 5 µM ([1]; Table 1b) | inhibition at 5 µM ([1]; Table 1c) | inhibition at 10 µM ([1]; Table 1c) | inhibition at 25 µM ([1]; Table 1b) | inhibition at 50 µM ([1]; Table 1b) | IC50 [1, 3] | inhibition at 0.01 µM ([2]; Table 1d) | inhibition at 0.05 µM ([2]; Table 1d) | inhibition at 0.1 µM ([2]; Table 1d) | inhibition at 1 µM ([2]; Table 1b) | inhibition at 5 µM ([2]; Table 1b) | inhibition at 25 µM ([2]; Table 1b) | inhibition at 50 µM ([2]; Table 1b) | IC50 [2, 3] | also measured
1 | O=C1c2ccccc2C(=O)c2nc(CS(=O)(=O)c3ccc(F)c(F)c3F)c(CS(=O)(=O)c3ccc(F)c(F)c3F)nc21 [OVM23] | -20% | -26% | -22% | 16% | 69% | 18% | 53% | -1% | 4% | 94% | 97% | > 10 µM | -5% | 12% | 24% | 83% | 92% | 100% | 103% | 2.2 µM | inhibition at 0.5 µM ([2]; Table 1d): 20%; inhibition at 1 µM ([2]; Table 1d): 34%; inhibition at 5 µM ([2]; Table 1d): 74%; inhibition at 10 µM ([2]; Table 1d): 80%
2 | O=C1c2ccccc2C(=O)c2nc(CS(=O)(=O)c3ccc(Br)s3)c(CS(=O)(=O)c3ccc(Br)s3)nc21 [OVM16] | – | – | – | – | 1% | – | 26% | – | – | 42% | 80% | – | – | – | – | 10% | 56% | 92% | 104% | – | –
3 | CCCCCS(=O)(=O)Cc1nc2c(nc1CS(=O)(=O)CCCCC)C(=O)c1ccccc1C2=O [VIN6077] | -11% | -16% | -13% | 11% | 24% | -17% | 51% | 20% | 27% | 63% | 76% | > 10 µM | 19% | -2% | 26% | 54% | 94% | 101% | 100% | 1.2 µM | inhibition at 0.5 µM ([2]; Table 1d): 26%; inhibition at 1 µM ([2]; Table 1d): 44%; inhibition at 5 µM ([2]; Table 1d): 100%; inhibition at 10 µM ([2]; Table 1d): 91%
4 | O=C1c2ccccc2C(=O)c2nc(CS(=O)(=O)c3cccc(F)c3)c(CS(=O)(=O)c3cccc(F)c3)nc21 [OVM13] | 9% | -20% | -32% | -3% | 17% | -6% | 48% | 10% | 1% | 66% | 41% | > 10 µM | -22% | 3% | -9% | 60% | 88% | 102% | 94% | 0.4 µM | inhibition at 0.5 µM ([2]; Table 1d): 44%; inhibition at 1 µM ([2]; Table 1d): 65%; inhibition at 5 µM ([2]; Table 1d): 76%; inhibition at 10 µM ([2]; Table 1d): 35%; IC50 [2, 4]: 0.4 µM
5 | O=C1c2ccccc2C(=O)c2nc(CS(=O)(=O)c3ccc4c(c3)OCCO4)c(CS(=O)(=O)c3ccc4c(c3)OCCO4)nc21 [OVM19] | -19% | -14% | 13% | -1% | 20% | 9% | 25% | -3% | 11% | 21% | 18% | > 10 µM | -22% | -5% | -9% | 53% | 61% | 76% | 77% | 7.5 µM | inhibition at 0.5 µM ([2]; Table 1d): 17%; inhibition at 1 µM ([2]; Table 1d): 44%; inhibition at 5 µM ([2]; Table 1d): 46%; inhibition at 10 µM ([2]; Table 1d): 54%
6 | O=C1c2ccccc2C(=O)c2nc(CS(=O)(=O)c3cccc(C(F)(F)F)c3)c(CS(=O)(=O)c3cccc(C(F)(F)F)c3)nc21 [OVM17] | – | – | – | – | -11% | – | 9% | – | – | 27% | 25% | – | – | – | – | 25% | 33% | 68% | 85% | – | –

More lines, main results first:

Row | inhibition at 0.01 µM ([1]; Table 1c) | inhibition at 0.05 µM ([1]; Table 1c) | inhibition at 0.1 µM ([1]; Table 1c) | inhibition at 0.5 µM ([1]; Table 1c) | inhibition at 1 µM ([1]; Table 1b) | inhibition at 1 µM ([1]; Table 1c) | inhibition at 5 µM ([1]; Table 1b) | inhibition at 5 µM ([1]; Table 1c) | inhibition at 10 µM ([1]; Table 1c) | inhibition at 25 µM ([1]; Table 1b) | inhibition at 50 µM ([1]; Table 1b) | IC50 [1, 3] | inhibition at 0.01 µM ([2]; Table 1d) | inhibition at 0.05 µM ([2]; Table 1d) | inhibition at 0.1 µM ([2]; Table 1d) | inhibition at 1 µM ([2]; Table 1b) | inhibition at 5 µM ([2]; Table 1b) | inhibition at 25 µM ([2]; Table 1b) | inhibition at 50 µM ([2]; Table 1b) | IC50 [2, 3] | SMILES | also measured
7 | 17% | -7% | 4% | 6% | 23% | 57% | 66% | 19% | 56% | 95% | 97% | > 10 µM | 27% | 14% | 30% | 77% | 100% | 106% | 103% | 0.5 µM | CS(=O)(=O)Cc1nc2c(nc1CS(C)(=O)=O)C(=O)c1ccccc1C2=O [VIN6076] | IC50 [1, 4]: 0.65 µM; inhibition at 0.5 µM ([2]; Table 1d): 47%; inhibition at 1 µM ([2]; Table 1d): 85%; inhibition at 5 µM ([2]; Table 1d): 90%; inhibition at 10 µM ([2]; Table 1d): 98%; IC50 [2, 4]: 0.01 µM
8 | -8% | -12% | 2% | 26% | -9% | 5% | 22% | 8% | 17% | 53% | 50% | > 10 µM | -7% | -13% | -23% | 62% | 68% | 91% | 100% | 5 µM | COc1ccc(S(=O)(=O)Cc2nc3c(nc2CS(=O)(=O)c2ccc(OC)cc2)C(=O)c2ccccc2C3=O)cc1 [PCR7994] | inhibition at 0.5 µM ([2]; Table 1d): 18%; inhibition at 1 µM ([2]; Table 1d): 31%; inhibition at 5 µM ([2]; Table 1d): 52%; inhibition at 10 µM ([2]; Table 1d): 73%
9 | – | – | – | – | – | – | – | – | – | – | – | 17 µM | – | – | – | – | – | – | – | 4.5 µM | O=C1c2ccccc2C(=O)c2nc(CBr)c(CBr)nc21 [PCR8132] | –
